Results taken from patent US8865672B2, “Prevention of tissue ischemia and related methods” (The United States of America, as represented by the …, priority 2006, dated 2014).
Counter-ions that a name gives are not always drawn.

Tests used:
[1] = system: human platelets; test: Human platelet adhesion assay; format: cell-based; conditions: fibrinogen vs collagen, 10 μM
Method: Bacteriological Petri dishes (35×10 mm, Becton Dickinson Labware) were pre-coated with collagen (3 μg/ml) or fibrinogen (15 μg/mL) overnight. Following aspiration of non-adherent matrix, dishes were blocked with 1% BSA. Fresh platelets were washed and suspended in Tyrode's buffer and allowed to adhere for 30 minutes. Plates were washed with PBS, fixed with 0.5% glutaraldehyde and stained with 0.02% toluidine blue. Adherent platelets were counted microscopically. In some experiments platelets were pre-incubated with the Rap1 geranylgeranyltransferase inhibitor GGTI-298 (10 μM) for 30 minutes prior to initiating adhesion.

[2] = system: Rap1; test: Rap1 pulldown assay in platelets; format: cell-based, human; conditions: thrombin
Method: Platelets were diluted to 5×10^8 platelets/mL in Tyrode's buffer and treated with various reagents for the indicated times. Immediately following treatment, platelets were pelleted at 13,000 g for 30 seconds at 4° C. and resuspended in ice-cold lysis buffer containing 20 mM HEPES (pH 7.5), 100 mM NaCl, 10 mM EGTA, 20 mM MgCl2, 8 mM α-glycerophosphate, 1% Triton X-100, 1 mM phenylmethylsulfonylfluoride, 40 mM NaF, 1 mM Na3VO4, 10 μg/mL aprotinin, and 10 μg/mL leupeptin. Lysates were centrifuged at 13,000 g for 5 minutes at 4° C. and the supernatants were incubated for 15 minutes on a tumbler at 4° C. with glutathione Sepharose 4B beads (Amersham) prebound with a GST-Ral GDS RBD fusion protein (kind gift of J. Silvio Gutkind, NIH, Bethesda, Md.). Bead complexes were washed by centrifugation at 6,000 g for 30 seconds at 4° C. followed by resuspension in 0.5 mL lysis buffer; 2 washes were performed for each sample. After the second wash, beads were resuspended in an equal volume of 2×SDS sample buffer and stored at −20° C. For Western analysis, bead-bound proteins in sample buffer were boiled for 10 minutes and subjected to electrophoresis on NuPAGE 10% Bis-Tris gels (Invitrogen, Carlsbad, Calif.), transferred to Immobilon-P PVDF membranes (Millipore, Billerica, Mass.), and blotted with rabbit polyclonal anti-Rapt (sc-65; Santa Cruz Biotechnology, Santa Cruz, Calif.).

[3] = system: human platelets; test: Thrombin-induced human platelet aggregation; format: cell-based; conditions: GGTI-298 preincubation
In short: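 Washed human platelets in Tyrode's buffer pH 7.4 (2×10^5/μl) are stirred at 1200 rpm and 37 °C, and optical aggregation is followed for 5 min; under static conditions, A400 is tracked for 5 min instead. TSP1 agents or 1 μM peptide C6d are pre-incubated for 15 min before thrombin ± DEA/NO (10 μM).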

[4] = system: blood pressure and pulse in mice; test: Blood pressure and pulse measurements (tail cuff); format: in vivo, mouse
Method: Mean systolic, diastolic and arterial blood pressure (BP) and mean pulse was measured in age and sex matched mice using a computerized tail cuff system (Hatteras Systems, MC4000 Blood Pressure Analysis System, Cary, N.C.). The mice were allowed to acclimate to the apparatus for 5 min prior to the start of measurement. Each animal underwent a cycle of 10 preliminary and 50 experimental pressures measurements for data acquisition and data calculation. Animals were acclimated to the measuring system and protocol for 4 days with treatment with data acquisition being performed on the 5th day. Pressures recordings were performed at the same time each day. Data was accepted if the mouse had valid readings for at least 20 consecutive pulse beats. All studies were performed at the same hour each day.
Respirations were monitored continuously monitored by direct observation of the animal. Body core temperature was measured via rectal probe. Temperature control was performed using a water-circulating warming surface and heating lamp. Following a 15 minute period of stabilization mean systolic, diastolic and arterial blood pressure and mean pulse measurements were determined.

[5] = system: cutaneous perfusion in mice; format: in vivo, mouse
Method: Skin blood flow was measured using laser Doppler imaging (MoorLD1-2λ, Moor Instruments, Devon, England). Briefly, animals were placed in a prone position on a heating pad, and anesthesia was provided by 2% inhalation isoflurane in a 50:50 mixture of oxygen to room air. Core temperature was monitored by rectal probe and was further controlled with a heat lamp. The hair of the dorsum of the animals was clipped and depilated with Nare™ and a template with a 1 cm^2 area used to trace a region of interest (ROI). After equilibration to the experimental set-up analysis of cutaneous blood flow was obtained. The following instrument settings were used: override distance 21 cm; scan time 4 msec/pixel. Results are expressed as the change percent control from baseline of the ROI.

## COC(=O)[C@H](CC(C)C)NC(=O)c1ccc(NC[C@@H](N)CS)cc1-c1cccc2ccccc12 [GGTI-298, reference compound]
[1]
  thrombin-stimulated adhesion of platelets: selective in adhesion assays for blocking thrombin-stimulated adhesion of platelets on fibrinogen
[2]
  Rap1 activation (GTP loading): inhibits basal and partially inhibits thrombin-stimulated Rap1 activation
[3]
  platelet aggregation at high shear in the presence of NO: preferentially delayed platelet aggregation

## CNC[C@H](O)c1ccc(O)c(O)c1 [epinephrine, Epinephrine hydrochloride]
[4]; CD47 null animals, 0.05 μg/animal i.p.
  lethality: fatal
[4]; TSP1 null animals, 0.05 μg/animal i.p.
  mean arterial pressure: did not show a significant increase
[4]; after i.p. challenge
  mean pulse: moderately increased
[4]; wild type animals, 0.05 μg/animal i.p.
  mean arterial pressure: expected increase in mean arterial pressure
[5]; wild type and TSP1 null animals, epinephrine bolus
  cutaneous perfusion: increased cutaneous perfusion

## C[N+](C)(C)CCCCCC[N+](C)(C)C [hexamethonium, hexamethonium chloride]
[5]; wild type and TSP1 null animals under isoflurane, 30 μg/gram i.v.
  cutaneous perfusion and survival after autonomic blockade: decreases in cutaneous perfusion and eventual cardiovascular collapse and death
